The nature of the data set: Stability of peptide in human plasma. In kind it is in vitro ADME.

No end group written: not given here.

One may read the fraction remaining as what is left of the initial amount, in per cent. In the case of “PVLDLFRELLNELLEALKQKLKPDWLKAFYDKVAEKLKEAF [22A-P-18A]”, the “peptide lost, in sHDL particles” value (human plasma, 24h incubation) stood at 15%. For the same sequence, where the note is “human, plasma, SD”, the share remaining at 24 h, 0.25 mg/mL is 73.6 ± 6.3%.

Source of the values: article doi:10.1101/2025.08.13.670037v1 (bioRxiv, 2025).
